The text below walks through data of patent US20160303112A1 (Laguna Pharmaceuticals, Inc., priority 2013, published 2016).

For data set [1] the following is noted: healthy subjects; cited from earlier work.
Another data set concerns "pure" atrial flutter. The data set can be described thus: Conversion of Atrial Flutter (Example 6). Type of data set: in vivo, human. To be noted: any time within 24 hours, N 4. The method, then:
The vanoxerine or identical appearing placebo was randomly assigned and administered in a double-blinded fashion. Definition of “pure” atrial flutter: only Atrial Flutter (no AF) seen at −30, −15, and 0 time points. Conversion at any time within 24 hours.

Data set [2] can be described thus: Adverse events in the placebo-controlled study (Example 6). Type of data set: in vivo, human. The text has this:
The vanoxerine or identical appearing placebo was randomly assigned and administered in a double-blinded fashion.

The next data set concerns cardiac arrhythmia. The data set can be described thus: Conversion to normal sinus rhythm in individual patients (Example 2). It is filed as in vivo, human. To be noted: second patient, supraventricular tachycardia, 200 mg + 200 mg. The method, then: Accordingly a further dose was required and administered to the patient. […] Wherein the patient is instructed to utilize a monitoring device with instructions on pricking the finger and providing a blood sample, for testing of the blood. Wherein the plasma concentration has not met at least 60 ng/ml, the second dose is to be taken to ensure that the patient achieves suitable plasma concentrations and converts to normal sinus rhythm.

A short description of data set [3]: Daily doses for 14 days in fourteen healthy patients (Example 4). It is filed as in vivo, human. To be noted: 25, 75 and 125 mg daily for 14 days. The method, then:
A standardized meal was served 15 minutes prior to each dosing.

For data set [4] the following is noted: human, in vivo, 50 mg. The text has this: The results are listed below in Table 7.
The nature of data set [5]: Plasma concentrations after a single 300 mg dose of vanoxerine in 25 patients (Example 1). It is filed as in vivo, human. The note with it: low concentration group. The method, then:
Each patient gave samples before administration of their dose, and then again at nine further time points, 30 minutes after administration, 1, 2, 3, 4, 6, 8, 12, and 24 hours post administration.

Data set [6] in a line: Plasma concentration of vanoxerine in individual arrhythmia patients (Example 2). It is filed as in vivo, human.
[7] abbreviates: first patient, atrial fibrillation, 200 mg.
Where [8] appears, read: second patient, supraventricular tachycardia, first 200 mg dose.
Where [9] appears, read: third patient, premature ventricular contractions, 200 mg.

Structures are written as SMILES.

With `Fc1ccc(C(OCCN2CCN(CCCc3ccccc3)CC2)c2ccc(F)cc2)cc1` [Vanoxerine, 1-[2-[bis(4-fluorophenyl)methoxy]ethyl]-4-(3-phenylpropyl)piperazine], the serum concentrations result in data set [1] is “unexpected fluctuations in serum concentrations”. Moreover, the results for the “Conversion of Atrial Flutter” value in the data set on "pure" atrial flutter (200 mg), with "pure" atrial flutter (300 mg) and in the data set on "pure" atrial flutter (400 mg) were 50%, 75% and 75%, respectively. In addition, the entries for the “number of AEs reported” value in data set [2] (200 mg (22)), in data set [2] (300 mg (25)) and in data set [2] (400 mg (25)) were “reporting 8 AEs”, “reporting 12 AEs” and 23 AEs, respectively. Also, the “number of SAE” value in data set [2] (200 mg (22)) and in data set [2] (400 mg (25)) was “(1 SAE)” throughout. In addition, in data set [2] (200, 300, 400 mg), the proarrhythmia result is reported as “absence of proarrhythmia”. Moreover, the tolerability entry in data set [2] (all doses (200, 300, 400 mg)) is “well tolerated”. Besides, the serious adverse events result in data set [2] (one at 200 mg, one at 400 mg, neither related to the study drug) is given as “only two serious adverse events”. In addition, the “time of conversion to normal sinus rhythm post administration of the first dose” value in the data set with cardiac arrhythmia was “about 6 hours”. For the same compound, in data set [3], the “steady state serum levels versus dose” value is “disproportionately and statistically greater levels at higher doses”. Besides, the TMax entry in data set [4] is “TMax 1.27 +− 0.5 hr (0.5-2.0)”. Moreover, the “Highest plasma level at any time point” value in data set [5] is about 40 ng/mL. The results for the “maximum concentration in the plasma” value in data set [6] (setting [7]), in data set [6] (setting [8]) and in data set [6] (setting [9]) were “about 70 ng/ml”, “about 20 ng/ml” and “about 150 ng/ml”, respectively. For the same compound, the “time of maximum concentration post administration” value in data set [6] (setting [7]), in data set [6] (setting [8]) and in data set [6] (setting [9]) was 60 min throughout. The concentration at 180 minutes in data set [6] (human, plasma, second patient, 180 minutes after first dose, further 200 mg given at 120 minutes) stood at 60 ng/mL.
